The source made the active and inactive calls. The rule behind the calls is not given here.
Test system: rodent carcinogenicity bioassays, tumor incidence
Assay: CCRIS carcinogenicity studies
Outline: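 Archive of carcinogenicity, mutagenicity, tumor promotion and tumor inhibition results drawn from journals, NCI reports and other sources, expert-reviewed; covers 1985-2011 and is no longer updated.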

In the case of `O=[N+]([O-])c1c2ccc3ccccc3c2cc2ccc3ccccc3c12`, the carcinogen call (Species: MOUSE, Strain/Sex: B6C3F1/MALE, Route: INTRAPERITONEAL, Dose: 0, 400 NMOL IN 35 µL DMSO (TOTAL DOSE) ADMINISTERED IN DOSES OF 1/7, 2/7, AND 4/7 OF THE TOTAL DOSE ON DAYS 1,8, AND 15, Tumor Site: Type of Lesion: LIVER :ADENOMA) is reported as “active; positive”.
`O=CCC=O` was tested, and the carcinogen call (Species: MOUSE, Strain/Sex: B6C3F1/FEMALE, Route: GAVAGE, Dose: 0, 60, 120 MG/KG IN DISTILLED WATER 5D/WK FOR 102 WK (STUDY DURATION: 105 WK), Dose: 0, 60, 120 MG/KG IN DISTILLED WATER 5D/WK FOR 102 WK (STUDY DURATION: 105 WK)) was “inactive; negative”, the carcinogen call (Species: MOUSE, Strain/Sex: B6C3F1/FEMALE, Route: INTRAPERITONEAL, Dose: 0, 1500 NMOL TOTAL DOSE, 1/3 AND 2/3 OF THE TOTAL DOSE ADMINISTERED AT 8 AND 15 DAYS OF AGE RESPECTIVELY, ANIMALS TERMIN) was “inactive; negative” and the carcinogen call (Species: MOUSE, Strain/Sex: B6C3F1/FEMALE, Route: INTRAPERITONEAL, Dose: 0, 3000 NMOL TOTAL DOSE, 1/3 AND 2/3 OF THE TOTAL DOSE ADMINISTERED AT 8 AND 15 DAYS OF AGE RESPECTIVELY, ANIMALS TERMIN) was “inactive; negative”. For the same compound, the carcinogen call (Species: MOUSE, Strain/Sex: B6C3F1/MALE, Route: GAVAGE, Dose: 0, 60, 120 MG/KG IN DISTILLED WATER 5D/WK FOR 102 WK (STUDY DURATION: 104 WK), Dose: 0, 60, 120 MG/KG IN DISTILLED WATER 5D/WK FOR 102 WK (STUDY DURATION: 104 WK)) was “inactive; negative”, the carcinogen call (Species: MOUSE, Strain/Sex: B6C3F1/MALE, Route: INTRAPERITONEAL, Dose: 0, 1500 NMOL TOTAL DOSE, 1/3 AND 2/3 OF THE TOTAL DOSE ADMINISTERED AT 8 AND 15 DAYS OF AGE RESPECTIVELY, ANIMALS TERMIN) was “inactive; negative” and the carcinogen call (Species: MOUSE, Strain/Sex: B6C3F1/MALE, Route: INTRAPERITONEAL, Dose: 0, 3000 NMOL TOTAL DOSE, 1/3 AND 2/3 OF THE TOTAL DOSE ADMINISTERED AT 8 AND 15 DAYS OF AGE RESPECTIVELY, ANIMALS TERMIN) was “inactive; negative”. The carcinogen call (Species: RAT, Strain/Sex: F344/FEMALE, Route: GAVAGE, Dose: 0, 50, 100 MG/KG IN DISTILLED WATER 5D/WK FOR 102 WK (STUDY DURATION: 105 WK), Dose: 0, 50, 100 MG/KG IN DISTILLED WATER 5D/WK FOR 102 WK (STUDY DURATION: 105 WK), Tumor Site: Type of Lesion: THYROID GLAND: FOLLICULAR CELL ADENOMA, THYROID GLAND: FOLLICULAR CELL ADENOMA OR CARCINOMA) was “active; positive” and the carcinogen call (Species: RAT, Strain/Sex: F344/MALE, Route: GAVAGE, Dose: 0, 50, 100 MG/KG IN DISTILLED WATER 5D/WK FOR 102 WK (STUDY DURATION: 104 WK), Dose: 0, 50, 100 MG/KG IN DISTILLED WATER 5D/WK FOR 102 WK (STUDY DURATION: 104 WK), Tumor Site: Type of Lesion: THYROID GLAND: FOLLICULAR CELL ADENOMA OR CARCINOMA, PANCREATIC ISLETS: ISLET CELL ADENOMA, PANCREATIC ISLETS: ISLET CEL, Tumor Site: Type of Lesion: THYROID GLAND: FOLLICULAR CELL ADENOMA OR CARCINOMA, PANCREATIC ISLETS: ISLET CELL ADENOMA, PANCREATIC ISLETS: ISLET CEL) was “active; positive”.
In the case of `Cc1cc2c(c3ccc4ccccc4c13)C=C[C@@H](O)[C@@H]2O`, the carcinogen call (Species: MOUSE, Strain/Sex: ICR/FEMALE, Route: INTRAPERITONEAL, Dose: 8 NMOL/5 µL DMSO ON DAY 1, 16 NMOL/10 µL ON DAY 8, AND 32 NMOL/20 µL ON DAY 15 OF AGE (STUDY DURATION: 35 WK), Tumor Site: Type of Lesion: LUNG: TUMORS, LIVER: TUMORS) is reported as “active; positive” and the carcinogen call (Species: MOUSE, Strain/Sex: ICR/MALE, Route: INTRAPERITONEAL, Dose: 8 NMOL/5 µL DMSO ON DAY 1, 16 NMOL/10 µL ON DAY 8, AND 32 NMOL/20 µL ON DAY 15 OF AGE (STUDY DURATION: 35 WK), Tumor Site: Type of Lesion: LUNG: TUMORS) is reported as “active; positive”.
`O` was tested, and the carcinogen call (Species: MOUSE, Strain/Sex: B6C3F1/FEMALE, Route: ORAL, Dose: 0, 0.5, 2% IN DIET FOR 96 WK FOLLOWED BY CONTROL DIET FOR 8 WK (STUDY DURATION: 104 WK), Dose: 0, 0.5, 2% IN DIET FOR 96 WK FOLLOWED BY CONTROL DIET FOR 8 WK (STUDY DURATION: 104 WK)) was “inactive; negative”, the carcinogen call (Species: MOUSE, Strain/Sex: B6C3F1/FEMALE, Route: ORAL, Dose: 0, 500, 1250, 2500 PPM IN DRINKING WATER (APPROXIMATELY 0; 40; 90; 200 MG/KG BW) FOR 104 WK (STUDY DURATION: 105 WK), Dose: 0, 500, 1250, 2500 PPM IN DRINKING WATER (APPROXIMATELY 0; 40; 90; 200 MG/KG BW) FOR 104 WK (STUDY DURATION: 105 WK)) was “inactive; negative” and the carcinogen call (Species: MOUSE, Strain/Sex: B6C3F1/MALE, Route: ORAL, Dose: 0, 0.5, 2% IN DIET FOR 96 WK FOLLOWED BY CONTROL DIET FOR 8 WK (STUDY DURATION: 104 WK), Dose: 0, 0.5, 2% IN DIET FOR 96 WK FOLLOWED BY CONTROL DIET FOR 8 WK (STUDY DURATION: 104 WK)) was “inactive; negative”. For the same compound, the carcinogen call (Species: MOUSE, Strain/Sex: B6C3F1/MALE, Route: ORAL, Dose: 0, 500, 1250, 2500 PPM IN DRINKING WATER (APPROXIMATELY 0; 30; 75; 160 MG/KG BW) FOR 103 WK (STUDY DURATION: 103 WK), Dose: 0, 500, 1250, 2500 PPM IN DRINKING WATER (APPROXIMATELY 0; 30; 75; 160 MG/KG BW) FOR 103 WK (STUDY DURATION: 103 WK)) was “inactive; negative”, the carcinogen call (Species: RAT, Strain/Sex: F344/FEMALE, Route: ORAL, Dose: 0, 500, 1250, 2500 PPM IN DRINKING WATER (APPROXIMATELY 0; 15; 45; 75 MG/KG BW) FOR 105 WK (STUDY DURATION: 106 WK), Dose: 0, 500, 1250, 2500 PPM IN DRINKING WATER (APPROXIMATELY 0; 15; 45; 75 MG/KG BW) FOR 105 WK (STUDY DURATION: 106 WK)) was “inactive; negative” and the carcinogen call (Species: RAT, Strain/Sex: F344/MALE, Route: ORAL, Dose: 0, 500, 1250, 2500 PPM IN DRINKING WATER (APPROXIMATELY 0; 15; 30; 60 MG/KG BW) FOR 104 WK (STUDY DURATION: 105 WK), Dose: 0, 500, 1250, 2500 PPM IN DRINKING WATER (APPROXIMATELY 0; 15; 30; 60 MG/KG BW) FOR 104 WK (STUDY DURATION: 105 WK)) was “inactive; negative”. For the same compound, the carcinogen call (Species: RAT, Strain/Sex: WISTAR/MALE, Route: INHALATION, Dose: 0, 10 MG/M3 OF RESPIRABLE DUST 7 HR/D 5 D/WK FOR 224 DAYS DURING A PERIOD OF 12 MO (STUDY DURATION: 29 MO), Tumor Site: Type of Lesion: LUNG: ADENOMA OR CARCINOMA) was “active; positive” and the carcinogen call (Species: RAT, Strain/Sex: WISTAR/MALE, Route: INTRAPERITONEAL, Dose: 0, 25 MG OF DUST SUSPENDED IN 2 ML PHOSPHATE BUFFERED SALINE (STUDY DURATION: >418 D), Tumor Site: Type of Lesion: LUNG: MESOTHELIOMA) was “active; positive”.
